SMILES strings stand for the structures. pKi: −log10 of the molar value.

Our source for the Ki values is US8653088B2, “Compositions useful as inhibitors of protein kinases” (Vertex Pharmaceuticals Incorporated, priority 2003, dated 2014).

Chain of GSK-3β (AA 1-420) (P49841 whole entry, species assumed, the tested form may be a part): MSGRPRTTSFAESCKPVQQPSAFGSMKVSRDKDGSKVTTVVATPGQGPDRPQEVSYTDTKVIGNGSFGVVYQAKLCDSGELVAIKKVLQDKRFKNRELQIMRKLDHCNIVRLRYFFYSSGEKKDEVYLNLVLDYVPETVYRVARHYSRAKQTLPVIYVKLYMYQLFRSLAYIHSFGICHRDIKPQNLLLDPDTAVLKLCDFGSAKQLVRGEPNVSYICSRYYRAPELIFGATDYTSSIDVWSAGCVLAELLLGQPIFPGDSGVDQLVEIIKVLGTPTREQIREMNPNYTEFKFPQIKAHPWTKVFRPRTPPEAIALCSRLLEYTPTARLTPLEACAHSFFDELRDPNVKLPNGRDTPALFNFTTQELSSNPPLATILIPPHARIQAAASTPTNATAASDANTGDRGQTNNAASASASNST

This assay concerns the target GSK-3β (AA 1-420) (Homo sapiens, UniProt P49841). Nature of the assay: Inhibition of GSK-3, standard coupled enzyme system. The class given is biochemical. As to conditions: 20 μM ATP, 300 μM peptide, 20 nM GSK-3β, 30° C. Here is the method: Compounds were screened for their ability to inhibit GSK-3β (AA 1-420) activity using a standard coupled enzyme system (Fox et al. Protein Sci. 7, p. 2249 (1998)). Reactions were carried out in a solution containing 100 mM HEPES (pH 7.5), 10 mM MgCl2, 25 mM NaCl, 300 μM NADH, 1 mM DTT and 1.5% DMSO. Final substrate concentrations in the assay were 20 μM ATP (Sigma Chemicals, St Louis, Mo.) and 300 μM peptide (American Peptide, Sunnyvale, Calif.). Reactions were carried out at 30° C. and 20 nM GSK-3β. Final concentrations of the components of the coupled enzyme system were 2.5 mM phosphoenolpyruvate, 300 μM NADH, 30 μg/ml pyruvate kinase and 10 μg/ml lactate dehydrogenase.
An assay stock buffer solution was prepared containing all of the reagents listed above with the exception of ATP and the test compound of interest. The assay stock buffer solution (175 μl) was incubated in a 96 well plate with 5 μl of the test compound of interest at final concentrations spanning 0.002 μM to 30 μM at 30° C. for 10 min. Typically, a 12 point titration was conducted by preparing serial dilutions (from 10 mM compound stocks) with DMSO of the test compounds in daughter plates. The reaction was initiated by the addition of 20 μl of ATP (final concentration 20 μM). Rates of reaction were obtained using a Molecular Devices Spectramax plate reader (Sunnyvale, Calif.) over 10 min at 30° C. The Ki values were determined from the rate data as a function of inhibitor concentration.
Regarding `COc1cc2ncnc(Nc3n[nH]c4cc(=O)n(-c5cccc(C(F)(F)F)c5)nc34)c2cc1OC` [Compound I-6], the negative logarithm of the Ki (pKi) (as a rule, the Ki on a negative log10 scale, so that one unit is a factor of ten) is more than 5.40.
Compound `Nc1n[nH]c2cc(=O)n(-c3cccc([N+](=O)[O-])c3)nc12` [Compound I-7] gave a pKi of more than 5.40.
Under `Nc1n[nH]c2cc(=O)n(-c3ccccc3)nc12` [Compound I-2] stands more than 5.40; under `COc1cccc(-n2nc3c(N)n[nH]c3cc2=O)c1` [Compound I-1], more than 5.40.
The compound `Nc1n[nH]c2cc(=O)n(-c3cccc(S(N)(=O)=O)c3)nc12` [Compound I-9] had a pKi of more than 5.40.
For the compound `Cc1ccc(-n2nc3c(N)n[nH]c3cc2=O)cc1` [Compound I-5], the negative logarithm of the Ki (pKi) is more than 5.40.
The compound `Nc1n[nH]c2cc(=O)n(-c3cccc(Cl)c3)nc12` [Compound I-8] gave a pKi of more than 5.40.
Consider `Nc1n[nH]c2cc(=O)n(-c3ccc(Oc4ccccc4)cc3)nc12` [Compound I-4], for which the pKi was more than 5.40.
